The values that follow come from PMC8162404, “Proteomimetic surface fragments distinguish targets by function” (Chemical Science, 2020).

What all share (test): Pull-down assay with immobilized protein and LSM libraries
One assay concerns the target T1, S100A4 (Homo sapiens, UniProt P26447).
T1 construct: made in house; host or cells: Escherichia coli BL21(DE3)
The assay is classed as binding. As to conditions: 1:1 binding assumed, read-out: Surface mapping KD (apparent). An outline of the steps: (§1)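 Buffers were HEPES pH 7.4 with 150 mM NaCl, plus 1 mM TCEP and 1 mM CaCl2 (50 mM HEPES) for S100A4 and S100B, 1 mM TCEP for Gal-1, and no additive for RecQ-WH. Immobilized protein at 64 µM was equilibrated 30 min with the LSM sublibrary, and unbound probes were measured by LC-MS.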

The next assay addresses T2, S100B (Homo sapiens, UniProt P04271).
T2 construct: made in house; host or cells: Escherichia coli BL21(DE3)
T2 sequence (P04271 1-92): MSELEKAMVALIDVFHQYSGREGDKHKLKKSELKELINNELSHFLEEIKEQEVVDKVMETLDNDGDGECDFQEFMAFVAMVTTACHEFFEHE
The class given is binding. Conditions: 1:1 binding assumed, read-out: Surface mapping KD (apparent). An outline of the steps:
as §1

Another assay has as its target T3, Gal-1 (Homo sapiens, UniProt P09382).
T3 construct: made in house; host or cells: E. coli BL21(DE3)
The class given is binding. Conditions: H12 library; 1:1 binding assumed; read-out: Surface mapping KD (apparent). An outline of the steps:
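His-tagged protein immobilized on Co-NTA resin (64 µM) in 20 mM HEPES pH 7.4, 150 mM NaCl, equilibrated 30 min at room temperature with foldamer LSM sublibraries at equimolar total concentration. Unbound fractions quantified by HPLC-MS versus protein-free resin control; apparent KD assumes 1:1 binding.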

The next assay concerns the target T4, CaM (Bos taurus, UniProt P62157).
T4 construct: made in house; host or cells: E. coli BL21 (DE3)
The class given is binding, bovine. As to conditions: 1:2 stoichiometry assumed, read-out: Surface mapping KD (apparent). An outline of the steps:
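His-tagged protein immobilized on Co-NTA resin, equilibrated 30 min at room temperature with LSM sublibraries (64 members, […]), equimolar protein to total probe. CaM buffer: 20 mM HEPES pH 7.4, 150 mM NaCl, 5 mM CaCl2. Bound fractions from HPLC-MS loss of unbound probe versus protein-free resin control; Kd derived.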

Where two headings read alike, the source gives them in different places.

T3 sequence (P09382 whole entry): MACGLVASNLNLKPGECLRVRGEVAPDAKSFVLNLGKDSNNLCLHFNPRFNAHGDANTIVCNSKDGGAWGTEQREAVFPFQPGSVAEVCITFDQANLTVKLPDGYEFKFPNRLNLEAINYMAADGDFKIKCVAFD
T1 sequence (P26447 whole entry): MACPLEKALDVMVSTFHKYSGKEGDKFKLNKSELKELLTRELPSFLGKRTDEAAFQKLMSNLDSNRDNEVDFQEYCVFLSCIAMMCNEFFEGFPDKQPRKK

For `NC(=O)[C@H]1CCC[C@@H]1NC(=O)[C@H]1CCC[C@@H]1NC(=O)C[C@H](Cc1ccccc1)NC(=O)[C@H]1CCC[C@@H]1NC(=O)[C@H]1CCC[C@@H]1NC(=O)C[C@H](Cc1ccccc1)NC(=O)[C@H]1CCC[C@@H]1NC(=O)[C@H]1CCC[C@@H]1N` [H12 FF], the Kd at S100A4 (H12 library) is 125 µM; on S100B (H12 library), 14 µM; at Gal-1, 130 µM; at CaM (H12 library) it was 21 µM.

For the molecule `CC[C@H](C)[C@@H](CC(=O)N[C@H]1CCC[C@@H]1C(=O)N[C@H]1CCC[C@@H]1C(N)=O)NC(=O)[C@H]1CCC[C@@H]1NC(=O)[C@H]1CCC[C@@H]1NC(=O)C[C@H](Cc1ccccc1)NC(=O)[C@H]1CCC[C@@H]1NC(=O)[C@H]1CCC[C@@H]1N` [H12 FI], the Kd at S100A4 (H12 library) stood at 126 µM; at S100B (H12 library), 13 µM; on Gal-1 it was 167 µM; on CaM (H12 library), 15 µM.

As to `CC(C)C[C@@H](CC(=O)N[C@H]1CCC[C@@H]1C(=O)N[C@H]1CCC[C@@H]1C(N)=O)NC(=O)[C@H]1CCC[C@@H]1NC(=O)[C@H]1CCC[C@@H]1NC(=O)C[C@H](Cc1ccccc1)NC(=O)[C@H]1CCC[C@@H]1NC(=O)[C@H]1CCC[C@@H]1N` [H12 FL], the Kd came to 83 µM at S100A4 (H12 library), 14 µM at S100B (H12 library), 114 µM at Gal-1 and 205 µM at CaM (H12 library).

Consider `CC(C)[C@@H](CC(=O)N[C@H]1CCC[C@@H]1C(=O)N[C@H]1CCC[C@@H]1C(N)=O)NC(=O)[C@H]1CCC[C@@H]1NC(=O)[C@H]1CCC[C@@H]1NC(=O)C[C@H](Cc1ccccc1)NC(=O)[C@H]1CCC[C@@H]1NC(=O)[C@H]1CCC[C@@H]1N` [H12 FV], for which the Kd at S100A4 (H12 library) was 207 µM; at S100B (H12 library) it was 46 µM; at Gal-1, 170 µM; on CaM (H12 library), 157 µM.

With `NC(=O)[C@H]1CCC[C@@H]1NC(=O)[C@H]1CCC[C@@H]1NC(=O)C[C@H](Cc1c[nH]c2ccccc12)NC(=O)[C@H]1CCC[C@@H]1NC(=O)[C@H]1CCC[C@@H]1NC(=O)C[C@H](Cc1ccccc1)NC(=O)[C@H]1CCC[C@@H]1NC(=O)[C@H]1CCC[C@@H]1N` [H12 FW], the Kd was found to be 75 µM at S100A4 (H12 library), 10 µM on S100B (H12 library), 136 µM at Gal-1 and 134 µM at CaM (H12 library).

On to `CC[C@H](C)[C@@H](CC(=O)N[C@H]1CCC[C@@H]1C(=O)N[C@H]1CCC[C@@H]1C(=O)N[C@H](CC(=O)N[C@H]1CCC[C@@H]1C(=O)N[C@H]1CCC[C@@H]1C(N)=O)Cc1ccccc1)NC(=O)[C@H]1CCC[C@@H]1NC(=O)[C@H]1CCC[C@@H]1N` [H12 IF], for which the Kd on S100A4 (H12 library) turned out to be 32 µM; at S100B (H12 library), 22 µM; at Gal-1 it was 376 µM; at CaM (H12 library) it was 28 µM.

Take `CC[C@H](C)[C@@H](CC(=O)N[C@H]1CCC[C@@H]1C(=O)N[C@H]1CCC[C@@H]1C(N)=O)NC(=O)[C@H]1CCC[C@@H]1NC(=O)[C@H]1CCC[C@@H]1NC(=O)C[C@@H](NC(=O)[C@H]1CCC[C@@H]1NC(=O)[C@H]1CCC[C@@H]1N)[C@@H](C)CC` [H12 II]: the Kd at S100A4 (H12 library) came out at 79 µM; at S100B (H12 library), 25 µM; at Gal-1, 395 µM; on CaM (H12 library), 67 µM.

On to `CC[C@H](C)[C@@H](CC(=O)N[C@H]1CCC[C@@H]1C(=O)N[C@H]1CCC[C@@H]1C(=O)N[C@H](CC(=O)N[C@H]1CCC[C@@H]1C(=O)N[C@H]1CCC[C@@H]1C(N)=O)CC(C)C)NC(=O)[C@H]1CCC[C@@H]1NC(=O)[C@H]1CCC[C@@H]1N` [H12 IL], for which the Kd at S100A4 (H12 library) came to 79 µM; on S100B (H12 library) it was 25 µM; on Gal-1, 395 µM; on CaM (H12 library), 67 µM.

In the case of `CC[C@H](C)[C@@H](CC(=O)N[C@H]1CCC[C@@H]1C(=O)N[C@H]1CCC[C@@H]1C(=O)N[C@@H](CCSC)CC(=O)N[C@H]1CCC[C@@H]1C(=O)N[C@H]1CCC[C@@H]1C(N)=O)NC(=O)[C@H]1CCC[C@@H]1NC(=O)[C@H]1CCC[C@@H]1N` [H12 IM], the Kd amounted to 381 µM at S100A4 (H12 library), 74 µM at S100B (H12 library), 378 µM at Gal-1 and 211 µM on CaM (H12 library).

Turning to `CC[C@H](C)[C@@H](CC(=O)N[C@H]1CCC[C@@H]1C(=O)N[C@H]1CCC[C@@H]1C(=O)N[C@H](CC(=O)N[C@H]1CCC[C@@H]1C(=O)N[C@H]1CCC[C@@H]1C(N)=O)C(C)C)NC(=O)[C@H]1CCC[C@@H]1NC(=O)[C@H]1CCC[C@@H]1N` [H12 IV], the Kd on S100A4 (H12 library) was found to be 373 µM; on S100B (H12 library) it was 57 µM; on Gal-1 it was 463 µM; on CaM (H12 library), 270 µM.

For the molecule `CC[C@H](C)[C@@H](CC(=O)N[C@H]1CCC[C@@H]1C(=O)N[C@H]1CCC[C@@H]1C(=O)N[C@H](CC(=O)N[C@H]1CCC[C@@H]1C(=O)N[C@H]1CCC[C@@H]1C(N)=O)Cc1c[nH]c2ccccc12)NC(=O)[C@H]1CCC[C@@H]1NC(=O)[C@H]1CCC[C@@H]1N` [H12 IW], the Kd on S100A4 (H12 library) turned out to be 28 µM; on S100B (H12 library) it was 11 µM; on Gal-1, 368 µM; at CaM (H12 library) it was 19 µM.

Consider `CC[C@H](C)[C@@H](CC(=O)N[C@H]1CCC[C@@H]1C(=O)N[C@H]1CCC[C@@H]1C(=O)N[C@H](CC(=O)N[C@H]1CCC[C@@H]1C(=O)N[C@H]1CCC[C@@H]1C(N)=O)Cc1ccc(O)cc1)NC(=O)[C@H]1CCC[C@@H]1NC(=O)[C@H]1CCC[C@@H]1N` [H12 IY], for which the Kd on S100A4 (H12 library) came to 100 µM; at S100B (H12 library), 56 µM; on Gal-1, 347 µM; on CaM (H12 library) it was 28 µM.

In the case of `NCCCC[C@@H](CC(=O)N[C@H]1CCC[C@@H]1C(=O)N[C@H]1CCC[C@@H]1C(=O)N[C@H](CC(=O)N[C@H]1CCC[C@@H]1C(=O)N[C@H]1CCC[C@@H]1C(N)=O)Cc1ccccc1)NC(=O)[C@H]1CCC[C@@H]1NC(=O)[C@H]1CCC[C@@H]1N` [H12 KF], the Kd on S100A4 (H12 library) was determined as 416 µM; on S100B (H12 library) it was 66 µM; on Gal-1, 292 µM; on CaM (H12 library) it was 239 µM.

As for `CSCC[C@@H](CC(=O)N[C@H]1CCC[C@@H]1C(=O)N[C@H]1CCC[C@@H]1C(=O)N[C@H](CC(=O)N[C@H]1CCC[C@@H]1C(=O)N[C@H]1CCC[C@@H]1C(N)=O)Cc1c[nH]c2ccccc12)NC(=O)[C@H]1CCC[C@@H]1NC(=O)[C@H]1CCC[C@@H]1N` [H12 MW], the figures for the Kd at S100A4 (H12 library), at S100B (H12 library) and at CaM (H12 library) were 170 µM, 26 µM and 42 µM, respectively.

As for `CSCC[C@@H](CC(=O)N[C@H]1CCC[C@@H]1C(=O)N[C@H]1CCC[C@@H]1C(N)=O)NC(=O)[C@H]1CCC[C@@H]1NC(=O)[C@H]1CCC[C@@H]1NC(=O)C[C@H](Cc1c[nH]c2ccccc12)NC(=O)[C@H]1CCC[C@@H]1NC(=O)[C@H]1CCC[C@@H]1N` [H12 WM], the Kd at S100A4 (H12 library) came out at 98 µM; at S100B (H12 library), 20 µM; at CaM (H12 library), 42 µM.

Regarding `CC(C)[C@@H](CC(=O)N[C@H]1CCC[C@@H]1C(=O)N[C@H]1CCC[C@@H]1C(N)=O)NC(=O)[C@H]1CCC[C@@H]1NC(=O)[C@H]1CCC[C@@H]1NC(=O)C[C@H](Cc1c[nH]c2ccccc12)NC(=O)[C@H]1CCC[C@@H]1NC(=O)[C@H]1CCC[C@@H]1N` [H12 WV], the Kd at S100A4 (H12 library) amounted to 183 µM; at S100B (H12 library) it was 38 µM; on CaM (H12 library) it was 83 µM.

On to `NC(=O)[C@H]1CCC[C@@H]1NC(=O)[C@H]1CCC[C@@H]1NC(=O)C[C@H](Cc1ccc(O)cc1)NC(=O)[C@H]1CCC[C@@H]1NC(=O)[C@H]1CCC[C@@H]1NC(=O)C[C@H](Cc1c[nH]c2ccccc12)NC(=O)[C@H]1CCC[C@@H]1NC(=O)[C@H]1CCC[C@@H]1N` [H12 WY], for which the figures for the Kd at S100A4 (H12 library), on S100B (H12 library) and at CaM (H12 library) were 153 µM, 28 µM and 30 µM, respectively.

Turning to `NC(=O)[C@H]1CCC[C@@H]1NC(=O)[C@H]1CCC[C@@H]1NC(=O)C[C@H](Cc1ccccc1)NC(=O)[C@H]1CCC[C@@H]1NC(=O)[C@H]1CCC[C@@H]1NC(=O)C[C@H](Cc1ccc(O)cc1)NC(=O)[C@H]1CCC[C@@H]1NC(=O)[C@H]1CCC[C@@H]1N` [H12 YF], the Kd on S100A4 (H12 library) is 239 µM; on S100B (H12 library), 36 µM; at CaM (H12 library), 30 µM.

With `NC(=O)[C@H]1CCC[C@@H]1NC(=O)[C@H]1CCC[C@@H]1NC(=O)C[C@H](Cc1c[nH]c2ccccc12)NC(=O)[C@H]1CCC[C@@H]1NC(=O)[C@H]1CCC[C@@H]1NC(=O)C[C@H](Cc1ccc(O)cc1)NC(=O)[C@H]1CCC[C@@H]1NC(=O)[C@H]1CCC[C@@H]1N` [H12 YW], the results for the Kd on S100A4 (H12 library), on S100B (H12 library) and on CaM (H12 library) were 153 µM, 28 µM and 30 µM, respectively.

In the case of `CC[C@H](C)[C@@H](CC(=O)N[C@H]1CCCC[C@@H]1C(N)=O)NC(=O)[C@H]1CCCC[C@@H]1NC(=O)[C@H]1CCCC[C@@H]1NC(=O)C[C@H](CCCCN)NC(=O)[C@H]1CCCC[C@@H]1N` [H14 KI], the Kd at S100A4 (H14 library) was 85 µM; at S100B (H14 library) it was 80 µM; on CaM (H14 library) it was 22 µM.

For the molecule `CC(C)C[C@@H](CC(=O)N[C@H]1CCCC[C@@H]1C(N)=O)NC(=O)[C@H]1CCCC[C@@H]1NC(=O)[C@H]1CCCC[C@@H]1NC(=O)C[C@H](CCCCN)NC(=O)[C@H]1CCCC[C@@H]1N` [H14 KL], the values for the Kd at S100A4 (H14 library), at S100B (H14 library) and at CaM (H14 library) were 85 µM, 80 µM and 22 µM, respectively.
